Experimental findings from patent US4544512A, “Tridecyloxy- or tetradecyloxy-propane derivatives” (Takeda Chemical Industries, Ltd., priority 1980, dated 1985) are described below.

Each structure is given as a SMILES string. Converted amounts (≈) assume the structure as drawn.

One test relates to Tetrahymena pyriformis W. Nature of the test: Antiprotozoal activity, broth dilution method (MIC). The following applies: 28° C., 44-48 hours, read-out: MIC against Tetrahymena pyriformis W. It is filed as cell-based. As for the experimental part: Referring to the antiprotozoal activity given in Table 4, the microbial growth inhibiting activity (MIC) of each compound of this invention was assayed by the broth dilution method by incubating Tetrahymena pyriformis W strain as the test organism at 28° C. for 44-48 hours, using a test culture medium comprising 20 g of Tryptose peptine (Difco), 1 g of yeast extract, 2 g of glucose. 1,000 ml of distilled water and 10 ml of 1M phosphate buffer (pH 7.0).
For orientation: MIC means the least concentration at which growth counts as inhibited. With `CCCCCCCCCCCCOCCCOP(=O)(O)OCCN` [drawing 26 R = C12 H25], the MIC is 2 µg/mL (≈ 5.44 µM).

`CCCCCCCCCCCCCCOCC(COP(=O)([O-])OCC[N+](C)(C)C)OC` (stereo not drawn) [drawing 23 R = C14 H29]: the MIC is 0.2 µg/mL (≈ 0.428 µM).

For `CCCCCCCCCCCCCCOCCCOP(=O)(O)OCCN` [drawing 26 R = C14 H29], the MIC was determined as 0.4 µg/mL (≈ 1.01 µM).

`CCCCCCCCCCCCCCCCCCOCCCOP(=O)([O-])OCC[N+](C)(C)C` [drawing 25 R = C18 H37]: the MIC lay in the range of 2 to 4 µg/mL (≈ 4.05 to 8.1 µM).

For `CCCCCCCCCCCCCCCCCCOCC(COP(=O)(O)OCCN)OC` (stereo not drawn) [drawing 24 R = C18 H37], the MIC amounted to 4 µg/mL (≈ 8.3 µM).

For the compound `CCCCCCCCCCCCOCC(COP(=O)([O-])OCC[N+](C)(C)C)OC` (stereo not drawn) [drawing 23 R = C12 H25], the MIC turned out to be 0.4 µg/mL (≈ 0.91 µM).

In the case of `CCCCCCCCCCCCCOCCCOP(=O)([O-])OCC[N+](C)(C)C` [drawing 25 R = C13 H27], the MIC worked out at 0.2 µg/mL (≈ 0.472 µM).

On to `CCCCCCCCCCCCCCCCCCOCC(COP(=O)([O-])OCC[N+](C)(C)C)OC` (stereo not drawn) [drawing 23 R = C18 H37], for which the MIC was found to be 1 µg/mL (≈ 1.91 µM).

With `CCCCCCCCCCCCCOCCCOP(=O)(O)OCCN` [drawing 26 R = C13 H27], the MIC came to 0.4 µg/mL (≈ 1.05 µM).

Turning to `CCCCCCCCCCCCCCCCCCOCCCOP(=O)(O)OCCN` [drawing 26 R = C18 H37], the MIC came out at 4 µg/mL (≈ 8.86 µM).

For the compound `CCCCCCCCCCCCOCCCOP(=O)([O-])OCC[N+](C)(C)C` [drawing 25 R = C12 H25], the minimum inhibitory concentration (MIC) amounted to 1 µg/mL (≈ 2.44 µM).

Consider `CCCCCCCCCCCCCCOCCCOP(=O)([O-])OCC[N+](C)(C)C` [drawing 25 R = C14 H29], for which the MIC stood at 0.2 µg/mL (≈ 0.457 µM).

Turning to `CCCCCCCCCCCCCCOCC(COP(=O)(O)OCCN)OC` (stereo not drawn) [drawing 24 R = C14 H29], the MIC turned out to be 2 µg/mL (≈ 4.7 µM).

The test system of a further test is Cryptococcus unigtullatas. Nature of the test: Antimycotic activity, paper disk inhibition zone. It is filed as cell-based. The settings on record: 48 h, concentration of 3 mg/ml, paper disk 8 mm, 37° C., 2 days, read-out: Inhibition zone diameters. As for the experimental part: Referring to the antimycotic activity presented in Table 5, Cryptococcus unigtullatas and others were used as the test microbes, a paper disk (8 mm in diameter) was immersed in an aqueous solution of each test compound having a concentration of 3 mg/ml, air dried and placed on an agar medium, then incubation was conducted at 37° C. for 2 days, and the diameter (mm) of the inhibition zone was measured.
With `CCCCCCCCCCCCCCOCC(COP(=O)([O-])OCC[N+](C)(C)C)OC` (stereo not drawn) [drawing 27 R = C14 H29], the zone of inhibition at 3000 µg/mL stood at 22 mm.

As for `CCCCCCCCCCCCCCCCCCOCC(COP(=O)([O-])OCC[N+](C)(C)C)OC` (stereo not drawn) [drawing 27 R = C18 H37], the zone of inhibition at 3000 µg/mL was determined as 18 mm.

As to `CCCCCCCCCCCCCCOCCCOP(=O)([O-])OCC[N+](C)(C)C` [drawing 29 R = C14 H29], the zone of inhibition at 3000 µg/mL came to 21 mm.

For the compound `CCCCCCCCCCCCCCCCCCOCC(COP(=O)(O)OCCN)OC` (stereo not drawn) [drawing 28 R = C18 H37], the zone of inhibition at 3000 µg/mL is less than 5 mm.

Take `CCCCCCCCCCCCCCCCCCOCCCOP(=O)([O-])OCC[N+](C)(C)C` [drawing 29 R = C18 H37]: the zone of inhibition at 3000 µg/mL was 17 mm.

For the compound `CCCCCCCCCCCCCCOCC(COP(=O)(O)OCCN)OC` (stereo not drawn) [drawing 28 R = C14 H29], the zone of inhibition at 3000 µg/mL stood at 13.5 mm.

Take `CCCCCCCCCCCCOCCCOP(=O)([O-])OCC[N+](C)(C)C` [drawing 29 R = C12 H25]: the zone of inhibition at 3000 µg/mL came to 19 mm.

In the case of `CCCCCCCCCCCCOCC(COP(=O)([O-])OCC[N+](C)(C)C)OC` (stereo not drawn) [drawing 27 R = C12 H25], the zone of inhibition at 3000 µg/mL amounted to 15 mm.

In the case of `CCCCCCCCCCCCOCC(COP(=O)(O)OCCN)OC` (stereo not drawn) [drawing 28 R = C12 H25], the zone of inhibition at 3000 µg/mL was less than 5 mm.

With `CCCCCCCCCCCCCOCCCOP(=O)([O-])OCC[N+](C)(C)C` [drawing 29 R = C13 H27], the zone of inhibition at 3000 µg/mL was found to be 20 mm.

`CCCCCCCCCCCCCOCC(COP(=O)([O-])OCC[N+](C)(C)C)OC` (stereo not drawn) [drawing 27 R = C13 H27]: the zone of inhibition at 3000 µg/mL is 19 mm.
